In patent US12569465B2, “Method for activating follicles by means of using small-molecule compound, and preparation thereof” (TSINGTAO A-SMART MEDICAL TECHNOLOGY CO., LTD., priority 2020, dated 2026):

Assays:
KGN cells = assay: Estradiol (E2) levels in KGN cell culture supernatants (ELISA); format: cell-based, human; conditions: 24 h, versus control group
Protocol: KGN cell supernatants were collected after 24 hours of cell culture for the detection of E2 levels. The procedure of the assay followed the instructions of the E2 Assay Kit (Human Estradiol (E2) ELISA Kit, Cat #KAQ0621, Invitrogen).
(§1) Human-derived granulocyte-like cell line KGN (provided by Prof. Toshihiko Yanase, Fukuoka University, Japan) was cultured in DMEM/F12 medium. KGN were treated with different concentrations of VCD (0, 1 nM, 10 nM, 100 nM, 1000 nM) for 24 h, using 50 ng/ml FSH as control.

[1] = test system: 10-12 month old C57bl/6 ovaries; assay: Ovulation stimulation experiment in old mice; format: in vivo, mouse; conditions: 80 mg/kg intraperitoneal, 5 days, then PMSG/hCG
Protocol: 10-12 month old C57bl/6 […] were divided into experimental and control groups according to body weight, and the experimental group was weighed and injected intraperitoneally with 80 mg/kg of VCD, while the control group was given the same volume of saline. After 5 days of continuous administration, 5 units of PMSG were injected to the experimental group and the control group, and 10 IU of hCG was injected 48 hours later to induce secondary ovulation. Mice were executed 16 hours after hCG injection, and both oviducts were collected and placed in M2 dissecting solution (Cat #M7167, Sigma), and the oocyte-granulosa cell complexes were seen when cutting the dilated oviducts under a dissecting microscope. The granulosa cell complexes from each mouse were transferred to a droplet of hyaluronidase (Cat #90101, Fujifilm Irvine Scientific) and the number of eggs per mouse was counted under a microscope after the granulosa cells around the oocytes had been digested.
According to the method described in Example 1, 10-12 month old C57bl/6 […] were divided into experimental and control groups according to their body weight, and the experimental group was weighed and injected intraperitoneally with 80 mg/kg of VCD, while the control group was given the same volume of saline. […]

[2] = test system: PD12 mouse ovaries (secondary follicles); assay: In vitro culture of PD12 mouse ovaries, secondary follicle counting; format: cell-based; conditions: 4 days with VCD 1-1000 nM, compared to control group
From the text: (§2) Neonatal 2-day (PD2) or 12-day (PD12) C57bl/6 mice (provided by Shandong University Experimental Animal Center) were executed by decapitation and the ovaries and surrounding tissues were dissected and separated under a dissecting microscope, and the excised ovaries were placed in Leibovitz's L-15 medium (containing 10% fetal bovine serum+0.5% penicillin+0.5% streptomycin). The adipose tissue was dissected and separated. The separated ovaries were washed three times in PBS.
(§3) Configure ovarian medium: 1 mg/ml bovine serum albumin (BSA, Cat #A4161-1G, Sigma), 1 mg/ml AbluMAX II Lipid-Rich BSA (Cat #11021029, Gibco), 5% Insulin-Transferrin-Selenium (ITS-G) (Cat #41400-045, Gibco), 0.5% Penicillin+0.5% Streptomycin and 100 nM VCD were added into DMEM/F12 (Cat #11039-021, Gibco) medium. The prepared medium was mixed and added to a six-well plate with 1.5 ml of medium per well. A sieve (Cat #PICMORG50, Millipore) was put on the medium and placed in the incubator to preheat.
(§4) The separated ovaries were transferred to the ovarian medium with a pipette, washed three times and placed on the upper sieve of the pre-warmed medium. A drop of medium was added around the ovaries in the upper sieve to keep the area around the ovaries moist. The six-well plates were placed in a 37° C., 5% CO2 incubator for four consecutive days, and the lower layer of medium was changed daily. […]

aromatase [3] = assay: Aromatase expression in KGN cells; format: cell-based, human; conditions: VCD 1-1000 nM, 24 h
From the text: (§5) anti-rabbit aromatase (Cat #NBP1-45360, Novus, 1:2000), anti-rabbit phosphor-AKT (Serine 473) (D9E) (Cat #4060, Cell Signaling, 1:500), anti-rabbit phosphor-FoxO1 (Threonine 24)/FoxO3a (Threonine 32) (Cat #9464, Cell Signaling, 1:500), anti-rabbit phosphor-P-S6 (Serine 235/236) (Cat #4858, Cell Signaling, 1:1000), anti-rabbit phosphor-P-S6 (Serine 240/244) (Cat #2215, Cell Signaling, 1:1000), anti-rabbit phosphor-P70S6k (Threonine 389) (Cat #9205, Cell Signaling, 1:1000), anti-rabbit (Cat #7074S, CST) or anti-mouse (Cat #7076S, CST).
as §1

[4] = test system: PD2 mouse ovaries (primordial follicles); assay: In vitro culture of PD2 mouse ovaries, follicle counting; format: cell-based; conditions: VCD 1-1000 nM on first day of culture, then 3 days normal medium, compared with control group
From the text: as §2, §3, §4

[5] = test system: primordial and primary follicles; conditions: rodents; prior studies; cited from earlier work
PI3K-Akt pathway = assay: Western blot for phosphorylation of proteins associated with follicle activation in the ovary; format: cell-based; conditions: PD2 mouse ovaries; 10 nM VCD for 2-3 min in vitro
Protocol: PD2 mice were dissected in autopsy solution (Leibovitz's L-15 medium, […], Gibco; +10% fetal bovine serum (FBS)) after execution, washed twice in ovarian medium and incubated in ovarian medium. After incubation in medium with or without VCD for 3 min. ovarian tissue was collected and lysed in RIPA lysis solution (Cat #89900, Thermo) for digestion. Proteins were denatured and separated by SDS PAGE and transferred to PVDF membranes (Millipore). The membranes were incubated with primary antibodies followed by incubation with HRP-conjugated secondary antibodies and the bands were examined using an enhanced chemiluminescence detection kit (Bio-Rad).
as §5
Two-day-old (PD2) mouse ovaries were isolated and cultured in vitro according to the method described in Example 1. […]

[6] = test system: PD12 C57bl/6 female mice ovaries; assay: Follicle development in neonatal mice in vivo; parameters: species or system mouse; conditions: 20 or 160 mg/kg intraperitoneal, 5 consecutive days, compared to saline control
Protocol: PD12 C57bl/6 mice in the same litter were divided into experimental and control groups according to body weight. The experimental mice were weighed and given either 20 mg/kg or 160 mg/kg of VCD by intraperitoneal injection, while the control mice were given the same volume of saline. After […] of continuous administration, the mice were executed and the ovaries were dissected to separate the adipose tissue under the microscope and fixed in 4% PFA. Dehydrated sections were used to observe and count the development of follicles in the ovaries at different times.
According to the method described in Example 1, the same litter of PD12 C57bl/6 female mice was divided into experimental and control groups according to body weight and given 20 mg/kg or 160 mg/kg of VCD by intraperitoneal injection, while the control mice were given the same volume of saline. Each group (N=6) was administered for 5 consecutive days, and then the mice were executed and the collected ovaries were stained to observe the morphology as shown in FIG. 3A (yellow arrows indicate early sinus follicles and red arrows indicate sinus follicles).

aromatase [7] = assay: Aromatase expression in primary mouse granulosa cells; format: cell-based; conditions: PD20 primary granulosa cells; VCD 1-1000 nM, 24 h
From the text: as §5
Granulosa cells were isolated from the ovaries of PD20 mice according to the method described by Reddy P et al, Science 2008, 319(5863):611-613 and Liu Y X et al Biol Reprod 1986, 35(1):27-36, from which primary granulosa cell lines were obtained. They were treated with different concentrations of VCD (0, 1 nM, 10 nM, 100 nM, 1000 nM) for 24 h, using 50 ng/ml FSH as control.

SMILES: C1CC2OC2CC1C1CO1 (stereo not shown) [VCD, 4-vinylcyclohexene diepoxide]
- level of estrogen (E2) in cell supernatant (KGN cells): significantly higher
- follicle counts (sinus follicles, corpus luteum) in ovaries [1]: more sinus follicles as well as newly formed corpus luteum
- MII oocytes ovulated ([1]; versus saline control): more oocytes
- number of secondary follicles [2]: significantly increased
- expression level of aromatase in KGN (aromatase [3]): significantly increased
- number of primordial follicles and early primary follicles [4]: significantly increased
- ovotoxicity to follicles [5]: induces atretic degeneration of primordial and primary follicles
- activation of PI3K-Akt pathway (phosphorylation of involved proteins, Western blot) (PI3K-Akt pathway): significantly activate
- follicles close to the preovulatory stage in the ovaries [6]: more follicles close to the preovulatory stage
- expression level of aromatase in mouse granulosa cells (aromatase [7]): significantly increased
